The source of these data is US4808621A, “Trans-6-[2-(N-heteroaryl-3,5-disubstituted)pyrazol-4-yl)-ethyl]- or ethenyl]tetrahydro-4-hydroxypyran-2-one inhibitors of cholesterol biosynthesis” (Warner-Lambert Company, priority 1987, dated 1989).

Broadly, the IC50 is the concentration at which inhibition is half-maximal.

Assay [1] has as its system sterol synthesis by rat liver homogenate. Description: CSI screen: inhibition of incorporation of 14C-acetate into nonsaponifiable lipid by rat liver homogenate (sterol synthesis). It is filed as biochemical. The conditions noted are these: 50% inhibition of sterol synthesis over a one-hour period, liver homogenate of cholestyramine-fed rats. As for the experimental part: The ability of compounds of the present invention to inhibit the biosynthesis of cholesterol was measured by two methods. A first method (designated CSI screen) utilized the procedure described by R. E. Dugan et al., Archiv. Biochem. Biophys., (1972), 152, 21-27. In this method, the level of HMG-CoA enzyme activity in standard laboratory rats is increased by feeding the rats a chow diet containing 5% cholestyramine for four days, after which the rats are sacrificed.
The rat livers are homogenized, and the incorporation of ^14 C-acetate into nonsaponifiable lipid by the rat liver homogenate is measured. The micromolar concentration of compound required for 50% inhibition of sterol synthesis over a one-hour period is measured, and expressed as an IC50 value.

In assay [2] the target is T1, HMG-CoA reductase (Rattus norvegicus, UniProt P51639).
T1 sequence (P51639 1-887): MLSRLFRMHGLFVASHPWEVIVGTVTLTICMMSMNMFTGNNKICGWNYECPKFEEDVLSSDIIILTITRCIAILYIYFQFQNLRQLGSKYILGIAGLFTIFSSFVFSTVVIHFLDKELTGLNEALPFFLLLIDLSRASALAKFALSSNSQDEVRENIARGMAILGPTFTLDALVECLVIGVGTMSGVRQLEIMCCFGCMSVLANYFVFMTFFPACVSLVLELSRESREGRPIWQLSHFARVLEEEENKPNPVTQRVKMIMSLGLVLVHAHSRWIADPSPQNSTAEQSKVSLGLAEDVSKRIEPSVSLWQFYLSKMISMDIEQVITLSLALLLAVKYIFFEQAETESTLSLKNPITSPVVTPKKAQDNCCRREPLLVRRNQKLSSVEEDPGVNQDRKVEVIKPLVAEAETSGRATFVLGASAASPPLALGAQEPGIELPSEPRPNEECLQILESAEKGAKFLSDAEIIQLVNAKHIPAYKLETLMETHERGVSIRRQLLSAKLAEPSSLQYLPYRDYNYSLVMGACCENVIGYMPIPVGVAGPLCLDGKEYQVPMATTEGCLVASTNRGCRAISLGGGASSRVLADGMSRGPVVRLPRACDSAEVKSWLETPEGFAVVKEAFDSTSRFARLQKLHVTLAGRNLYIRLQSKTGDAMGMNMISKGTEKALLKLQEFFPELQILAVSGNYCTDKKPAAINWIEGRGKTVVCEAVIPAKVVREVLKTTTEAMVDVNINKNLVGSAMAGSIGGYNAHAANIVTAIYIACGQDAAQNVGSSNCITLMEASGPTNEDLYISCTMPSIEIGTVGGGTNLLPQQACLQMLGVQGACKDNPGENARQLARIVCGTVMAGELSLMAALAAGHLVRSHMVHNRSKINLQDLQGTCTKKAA
As to the kind of experiment: COR screen: conversion of 14C-HMG-CoA to 14C-mevalonate by purified HMG-CoA reductase. The class given is biochemical. The settings on record: purified enzyme preparation of HMG-CoA reductase, 14C-HMG-CoA converted to 14C-mevalonate. As for the experimental part:
A second method (designated COR screen) employed the procedure detailed by T. Kita, et al., J. Clin. Invest., (1980), 66: 1094-1100. In this method, the amount of ^14 C-HMG-CoA converted to ^14 C-mevalonate in the presence of a purified enzyme preparation of HMG-CoA reductase was measured. The micromolar concentration of compound required for 50% inhibition of cholesterol synthesis was measured and recorded as an IC50 value.

As for `CC[C@H](C)C(=O)O[C@H]1CCC=C2C=C[C@H](C)[C@H](CC[C@@H]3C[C@@H](O)CC(=O)O3)[C@H]21` [Compactin, reference compound], the IC50 in assay [1] was determined as 0.026 µM. `CC(C)c1nn(-c2ccccn2)c(-c2ccc(F)cc2)c1CC[C@H]1C[C@H](O)CC(=O)O1` (relative stereo) [Compound 1, trans-6-[2-[5-(4-fluorophenyl)-3-(1-methylethyl)-1-(2-pyridinyl)-1H-pyrazol-4-yl]ethyl]tetrahydro-4-hydroxy-2H-pyran-2-one]: the results for the half-maximal inhibitory concentration (IC50) in assay [1] and in assay [2] were 0.039 µM and 0.11 µM, respectively.
